Experimental data as given in patent publication US20250186452A1, “NOVEL USE OF QUINOLINE COMPOUND” (TARAPEUTICS SCIENCE INC., priority 2022, published 2025).
Read-outs that look alike come from different tables or passages of the source.

Key:
[1] = biological target: T1, TEL-CSF1R-BaF3 (Homo sapiens, UniProt P07333); test: Proliferation of TEL-CSF1R-BaF3 cells (CCK-8, 72 hours); assay type: cell-based; settings: for GI50: 72 hours incubation, CCK-8
T1 construct: expressed in transfected cells; host or cells: mouse BaF3 cells (ATCC), retroviral transduction with MSCV-Puro vector, IL-3 withdrawn; the other entry of the earlier key: ETV6 (P41212, Transcription factor ETV6)
T1 sequence (P07333 582-910 limits assumed): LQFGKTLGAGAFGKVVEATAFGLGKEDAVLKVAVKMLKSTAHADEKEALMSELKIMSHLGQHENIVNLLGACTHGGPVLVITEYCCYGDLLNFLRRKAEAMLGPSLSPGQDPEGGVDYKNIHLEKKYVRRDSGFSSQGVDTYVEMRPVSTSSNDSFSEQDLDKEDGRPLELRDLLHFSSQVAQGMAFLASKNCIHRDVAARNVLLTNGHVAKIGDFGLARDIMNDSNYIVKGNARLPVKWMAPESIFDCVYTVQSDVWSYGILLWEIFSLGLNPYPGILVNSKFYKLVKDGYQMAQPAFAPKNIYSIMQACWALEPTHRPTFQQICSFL
Procedure: (§1) The incubated cells were detected by CCK-8 (purchased from MedChem Express, China) cell viability detection kit (CCK-8 can be reduced by dehydrogenases in living cells to a highly water-soluble yellow formazan product, and the amount of the generated formazan product is proportional to the number of living cells). The number of living cells was quantified by a microplate reader, and the GI50 for each compound was calculated (the results are shown in Table 2).
The construction method of the TEL-CSF1R-BaF3 cell line (a cell line stably expressing CSF1R kinase) was as follows: the sequence of human CSF1R kinase region was amplified by PCR and inserted into the MSCV-Puro vector (Clontech) with an N-terminal TEL fragment, and stably transferred into mouse BaF3 cells (purchased from ATCC, USA) by a retroviral method, and IL-3 growth factor was removed, finally a cell line dependent on CSF1R transferred protein was obtained.

[2] = tested on: M-NSF-60; test: Proliferation of M-NSF-60 cells with M-CSF (CCK-8, 72 hours); assay type: cell-based, mouse; settings: for GI50: Mus musculus, read-out: M-NSF-60 (GI50/μM)
Procedure: as §1

[3] = M-CSF 50 ng/ml in medium, 72 hours incubation, CCK-8
[4] = result in words, summary of Table 2

Compound | GI50 [1] [µM] | inhibitory effect on the proliferation of TEL-CSF1R-BaF3 [1, 4] | GI50 ([2]; 72 h) [µM] | GI50 [2, 3] [µM] | inhibitory effect on the proliferation of M-NSF-60 [2, 4]
COc1cc2nccc(Oc3ccc(NC(=O)Cc4ccccc4)cn3)c2cc1OC [Comparative Example 1, N-(6-((6,7-dimethoxyquinolin-4-yl)oxy)pyridin-3-yl)-2-phenylacetamide, reference compound] | > 10 |  | > 10 |  | 
COc1cc2nccc(Oc3ncc(NC(=O)Cc4cccc(C(F)(F)F)c4)cc3Cl)c2cc1OC [Comparative Example 2, N-(5-chloro-6-((6,7-dimethoxyquinolin-4-yl)oxy)pyridin-3-yl)-2-(3-(trifluoromethyl)phenyl)acetamide, reference compound] | 2.54 |  |  | 7.84 | 
COc1cc2nccc(Oc3ccc(C(=O)NCc4cccc(C(F)(F)F)c4)cc3)c2cc1OC [Comparative Example 3, N-(3-(trifluoromethyl)benzyl)-4-((6,7-dimethoxyquinolin-4-yl)oxy)benzamide, reference compound] | 1.23 |  |  | 2.4 | 
COc1cc2nccc(Oc3ccc(NC(=O)Cc4ccc(C)c(C(F)(F)F)c4)cc3)c2cc1OC [Example 1, N-(4-((6,7-dimethoxyquinolin-4-yl)oxy)phenyl)-2-(4-methyl-3-(trifluoromethyl)phenyl)acetamide] | 0.002 |  | 0.009 |  | 
COc1cc2nccc(Oc3ccc(NC(=O)Cc4ccccc4)cc3)c2cc1OC [Example 3, N-(4-((6,7-dimethoxyquinolin-4-yl)oxy)phenyl)-2-phenylacetamide] | 0.012 |  |  | 0.1 | 
COc1cc2nccc(Oc3ccc(NC(=O)Cc4ccc(Cl)c(F)c4)cc3)c2cc1OC [Example 5, N-(4-((6,7-dimethoxyquinolin-4-yl)oxy)phenyl)-2-(4-chloro-3-fluorophenyl)acetamide] | 0.001 |  |  | 0.035 | 
COc1cc2nccc(Oc3ccc(NC(=O)Cc4cccc(C(F)(F)F)c4)c(Cl)c3)c2cc1OC [Example 6, N-(2-chloro-4-((6,7-dimethoxyquinolin-4-yl)oxy)phenyl)-2-(3-(trifluoromethyl)phenyl)acetamide] | 0.017 |  |  | 0.06 | 
COc1cc2nccc(Oc3ccc(NC(=O)Cc4ccc(C(F)(F)F)cc4)c(Cl)c3)c2cc1OC [Example 7, N-(2-chloro-4-((6,7-dimethoxyquinolin-4-yl)oxy)phenyl)-2-(4-(trifluoromethyl)phenyl)acetamide] | 0.009 |  |  | 0.03 | 
COc1cc2nccc(Oc3ccc(NC(=O)Cc4cccc(C(F)(F)F)c4)cc3)c2cc1OC [Example 8, N-(4-((6,7-dimethoxyquinolin-4-yl)oxy)phenyl)-2-(3-(trifluoromethyl)phenyl)acetamide] | 0.001 |  |  | 0.006 | 
COc1cc2nccc(Oc3ccc(NC(=O)Cc4ccc(C)c(C)c4)cc3)c2cc1OC [Example 11, N-(4-((6.7-dimethoxyquinolin-4-yl)oxy)phenyl)2-(3,4-dimethylphenyl)acetamide] | 0.001 |  |  | 0.005 | 
COc1cc2nccc(Oc3ccc(NC(=O)Cc4ccc(F)c(F)c4)cc3)c2cc1OC [Example 12, N-(4-((6,7-dimethoxyquinolin-4-yl)oxy)phenyl)-2-(3,4-difluorophenyl)acetamide] | 0.003 |  |  | 0.065 | 
COc1cc2nccc(Oc3ccc(NC(=O)Cc4c(F)cccc4F)cc3)c2cc1OC [Example 14, N-(4-((6,7-dimethoxyquinolin-4-yl)oxy)phenyl)-2-(2,6-difluorophenyl)acetamide] | 0.012 |  |  | 0.26 | 
COc1cc2nccc(Oc3ccc(NC(=O)Cc4ccc(F)cc4F)cc3)c2cc1OC [Example 15, N-(4-((6,7-dimethoxyquinolin-4-yl)oxy)phenyl)-2-(2,4-difluorophenyl)acetamide] | 0.003 |  |  | 0.051 | 
COc1cc2nccc(Oc3ccc(NC(=O)Cc4ccc(C)c(F)c4)cc3)c2cc1OC [Example 16, N-(4-((6,7-dimethoxyquinolin-4-yl)oxy)phenyl)-2-(3-fluoro-4-methylphenyl)acetamide] | 0.001 |  |  | 0.033 | 
COc1cc2nccc(Oc3ccc(NC(=O)Cc4ccc(Cl)c(C(F)(F)F)c4)c(Cl)c3)c2cc1OC [Example 23, N-(2-chloro-4-((6,7-dimethoxyquinolin-4-yl)oxy)phenyl)-2-(4-chloro-3-(trifluoromethyl)phenyl)acetamide] | 0.008 |  |  | 0.061 | 
COc1cc2nccc(Oc3ccc(NC(=O)Cc4ccc(Cl)c(C(F)(F)F)c4)c(F)c3)c2cc1OC [Example 24, N-(2-fluoro-4-((6,7-dimethoxyquinolin-4-yl)oxy)phenyl)-2-(4-chloro-3-(trifluoromethyl)phenyl)acetamide] | 0.002 |  |  | 0.024 | 
COc1cc2nccc(Oc3ccc(NC(=O)Cc4ccc(Cl)c(C(F)(F)F)c4)c(C)c3)c2cc1OC [Example 26, N-(2-methyl-4-((6,7-dimethoxyquinolin-4-yl)oxy)phenyl)-2-(4-chloro-3-(trifluoromethyl)phenyl)acetamide] | 0.006 |  |  | 0.06 | 
COc1cc2nccc(Oc3ccc(NC(=O)Cc4ccc(Cl)c(C(F)(F)F)c4)cc3C)c2cc1OC [Example 27, N-(3-methyl-4-((6,7-dimethoxyquinolin-4-yl)oxy)phenyl)-2-(4-chloro-3-(trifluoromethyl)phenyl)acetamide] | 0.003 |  |  | 0.041 | 
COc1cc2nccc(Oc3ccc(NC(=O)NCCCN4CCN(C)CC4)cc3)c2cc1OC [Example 29, 1-(4-((6,7-dimethoxyquinolin-4-yl)oxy)phenyl)-3-(3-(4-methylpiperazin-1-yl)propyl)urea] | 0.011 |  |  |  | 
COc1cc2nccc(Oc3ccc(NC(=O)Cc4ccc(Cl)c(C(F)(F)F)c4)cc3OC)c2cc1OC [Example 37, N-(3-methoxy-4-((6,7-dimethoxyquinolin-4-yl)oxy)phenyl)-2-(4-chloro-3-(trifluoromethyl)phenyl)acetamide] | 0.004 |  |  | 0.075 | 

Further molecules by falling GI50 [1], results first:

GI50 [1] [µM] | inhibitory effect on the proliferation of TEL-CSF1R-BaF3 [1, 4] | Compound | GI50 ([2]; 72 h) [µM] | GI50 [2, 3] [µM] | inhibitory effect on the proliferation of M-NSF-60 [2, 4]
0.17 | certain inhibitory activity | COc1cccc(CC(=O)Nc2ccc(Oc3ncnc4cc(OC)c(OC)cc34)cc2)c1 [Comparative Example 4, N-(4-((6,7-dimethoxyquinazolin-4-yl)oxy)phenyl)-2-(3-methoxyphenyl)acetamide, reference compound] |  | 0.55 | certain inhibitory activity
0.012 |  | COc1cc2nccc(Oc3ccc(NC(=O)NCCCN4CCOCC4)cc3)c2cc1OC [Example 28, 1-(4-((6,7-dimethoxyquinolin-4-yl)oxy)phenyl)-3-(3-morpholinopropyl)urea] |  |  | 
0.009 |  | COc1ccc(CC(=O)Nc2ccc(Oc3ccnc4cc(OC)c(OC)cc34)cc2)cc1OC [Example 10, N-(4-((6,7-dimethoxyquinolin-4-yl)oxy)phenyl)-2-(3,4-dimethoxyphenyl)acetamide] |  | 0.038 | 
0.006 |  | COc1cc2nccc(Oc3ccc(NC(=O)Cc4cccc(F)c4)cc3)c2cc1OC [Example 20, N-(4-((6,7-dimethoxyquinolin-4-yl)oxy)phenyl)-2-(3-fluorophenyl)acetamide] |  | 0.13 | 
0.003 |  | COc1cc2nccc(Oc3ccc(NC(=O)Cc4ccc(Cl)c(C(F)(F)F)c4)cc3F)c2cc1OC [Example 25, N-(3-fluoro-4-((6,7-dimethoxyquinolin-4-yl)oxy)phenyl)-2-(4-chloro-3-(trifluoromethyl)phenyl)acetamide] |  | 0.05 | 
0.002 |  | COc1cc2nccc(Oc3ccc(NC(=O)Cc4ccc(C(F)(F)F)cc4)cc3)c2cc1OC [Example 9, N-(4-((6,7-dimethoxyquinolin-4-yl)oxy)phenyl)-2-(4-(trifluoromethyl)phenyl)acetamide] |  | 0.007 | 
0.002 |  | COc1cc2nccc(Oc3ccc(NC(=O)Cc4ccc(F)c(C(F)(F)F)c4)cc3)c2cc1OC [Example 13, N-(4-((6,7-dimethoxyquinolin-4-yl)oxy)phenyl)-2-(4-fluoro-3-(trifluoromethyl)phenyl)acetamide] |  | 0.018 | 
0.002 |  | COc1cc2nccc(Oc3ccc(NC(=O)Cc4ccc(Cl)c(Cl)c4)cc3)c2cc1OC [Example 17, N-(4-((6,7-dimethoxyquinolin-4-yl)oxy)phenyl)-2-(3,4-dichlorophenyl)acetamide] |  | 0.042 | 
0.002 |  | COc1cc2nccc(Oc3ccc(NC(=O)Cc4ccc5c(c4)OCO5)cc3)c2cc1OC [Example 18, N-(4-((6,7-dimethoxyquinolin-4-yl)oxy)phenyl)-2-(benzo[d][1,3]dioxol-5-yl)acetamide] |  | 0.062 | 
0.0008 |  | COc1cc2nccc(Oc3ccc(NC(=O)Cc4ccc5ccccc5c4)cc3)c2cc1OC [Example 19, N-(4-((6,7-dimethoxyquinolin-4-yl)oxy)phenyl)-2-(naphth-2-yl)acetamide] |  | 0.074 | 
